Measured values reported in US10391150B2, “Treatments for migraine and related disorders” (The University of Chicago, priority 2011, dated 2019).
“Also recorded” adds a separate entry of the source.

B1: Interferon-gamma (protein, listed as Homo sapiens)
chain: MKYTSYILAFQLCIVLGSLGCYCQDPYVKEAENLKKYFNAGHSDVADNGTLFLGILKNWKEESDRKIMQSQIVSFYFKLFKNFKDDQSIQKSVETIKEDMNVKFFNSNKKKRDDFEKLTNYSVTDLNVQRKAIHELIQVMAELSPAAKTGKRKRSQMLFRGRRASQ

Key:
[1] = test system: oxidative stress (OS) in hippocampal slice cultures; assay: Oxidative stress (OS) by CellROX fluorescence in hippocampal slice cultures (CA3); format: cell-based, rat
Protocol: FIGS. 4A-4F Oxidative stress (OS) from SD and its reduction by IGF-1. (FIG. 4A) Normal cytoarchitecture of a hippocampal slice culture showing pyramidal neuron areas of CA1, dentate gyrus (DG), and the imaging zone for the inventors' work here (dotted line), CA3. (FIG. 4B) OS was measured using CellROX, a fixable fluorescent marker from Invitrogen. […] (FIG. 4D) This reduction versus control SD was significant (p<0.02; n=4 & 5). (FIG. 4E) CellROX can be used to measure relative OS in specific brain cell types.
FIGS. 9a-9f IGF-1 decreased oxidative stress from spreading depression. (FIG. 9a) NeuN immunohistochemical labeling of a hippocampal slice culture, for cytoarchitectural reference and to show the CA3 area of interest (dotted line box) used for quantification of oxidative stress (OS) via CellROX™ fluorescence intensity. (FIGS. 9b-c) Representative CellROX™-labeled hippocampal slices exposed to SD (FIG. 9b) and to 3-day IGF-1 incubation followed by spreading depression (SD) (FIG. 9c). Dotted line boxes illustrate CA3 areas of interest used for relative OS quantifications. […] Again, seven day treatments consisted of exposing cultures to IGF-1 for 12 hours a day for seven days. Note: IGF-1 exposure was continued for the additional 24 hour CellROX™ incubation. Scale bars=400 μm (a) and 200 μm (b and c). Comparisons between groups were made via ANOVA plus Holm-Sidak post hoc testing.
FIGS. 11a-11g IGF-1 decreased CA3 oxidative stress (OS) and its related hyperexcitability. […] Relative evoked excitability was determined as a sum of responses seen (e.g., responses of “2” and a “3” yielded an overall excitability score of five). […] (FIGS. 11d-e) Exemplary images of control (FIG. 11d) slice culture OS compared to increased slice OS induced by exposure to menadione (FIG. 11e). Calibration bar, 200 Dotted boxes indicate CA3 areas of interest used for relative OS quantifications (f and g).
Oxidative stress from SD preferentially rises in astrocytes and microglia, with the latter effect mitigated by IGF-1 (FIG. 13). The inventors have recently shown that spreading depression (SD), the most likely cause of migraine aura and perhaps migraine (Lauritzen and Kraig, 2005), occurs with increased oxidative stress (OS) and that OS, in turn, increases SD susceptibility (Grinberg et al., 2012). Reactive oxygen and nitrogen species that cause OS have both autocrine and paracrine signaling capacities that can affect SD susceptibility by altering excitability (Kishida and Klann, 2007). Accordingly, the inventors looked for the cellular origin of OS from SD. Here the inventors used hippocampal slice cultures (HSC) to probe for cell-specific changes in OS from SD. SD was induced trans-synaptically in rat HSCs using bipolar electrical stimuli at the dentate gyrus (Pusic et al., 2011). Six SDs were induced every 7-9 min over an hr, followed by 24 hr incubation in CellROX™, a fixable fluorogenic probe for measuring OS (Grinberg et al., 2012). HSCs were then fixed in 10% buffered formalin phosphate. Other fixatives (PLP, 4% paraformaldehyde) prevented detection of OS change. Tissue was then labeled for neurons (anti-NeuN), oligodendrocytes (anti-RIP), astrocytes (anti-GFAP), or for microglia (isolectin GS-IB4).

[2] = test system: OS from cLTP in hippocampal slice cultures; assay: OS / reactive oxygen species generated from chemical long-term potentiation (cLTP) in slice cultures; format: cell-based, rat; settings: 3 days treatment (IFN-γ 500 U/mL; IL-11; IGF-1), compared to shams
Protocol: This beneficial effect of low-level IFN-γ is supported by results from rats. In rats, enrichment, which occurs with hippocampal learning, led to a significant elevation in hippocampal T-cells, IFN-γ and MBP.
Experiments were performed in rat hippocampal slices cultures and SD induced as previously described (Pusic et al., 2011). Results were derived from n≥3-6/group. […] This is consistent with the neural activity increase seen after SD, which mimics the hyperexcitability evident in migraine patients.
This prompted the inventors to examine whether insulin could reduce SD susceptibility by increasing CA3 pyramidal neuron bursting. The inventors induced SD trans-synaptically in rat HSC using electrical stimuli (100 μs pulses @ 10 Hz for 1 s) ranging from 1 to 10,000 nC in order to determine SD threshold in sham and experimental groups (Pusic et al., 2011). Results were based on n≥3-6/group. […] This insulin dose approximates the pharmacological levels seen in humans treated with nasal insulin. […] The inventors hypothesized that the effect of insulin occurred through IGF-1 receptor cross-talk.
The inventors use a well-accepted method for inducing cLTP in slice cultures (Kraig et al., 2010; Otmakhov et al., 2004a; Otmakhov et al., 2004b; Kopec et al., 2006). The protocol consists of raising cAMP levels and increasing synaptic activity using rolipram/forskolin applied in a Mg^2+-free Ringer's solution (36° C.) for 5 min, then allowing slices to recover in normal media.

Molecule | baseline slice culture OS versus control ([1]; 3-day IGF-1 alone) | decrease in OS from SD ([1]; 3-day exposure to IGF-1) [%] | reduction of baseline OS levels compared with controls ([1]; 7-day exposure to IGF-1 alone) [%] | decrease in OS from SD ([1]; 7 days IGF-1, phasic) [%] | increased OS induced by SD ([1]; IGF-1 (40 ng/mL) for 3 days prior to SD) | increased OS induced by SD ([1]; IGF-1 acutely) | increased OS induced by SD ([1]; IGF-1 for 7 days prior to SD, 12 hours a day) | baseline slice culture OS versus control ([1]; acute IGF-1 exposure alone) | decrease in OS from SD ([1]; acute treatment with IGF-1) [%] | OS induced by menadione versus control ([1]; menadione exposure, without or with acute IGF-1) | OS induced by menadione versus control ([1]; pretreatment with IGF-1 for 3 days) | OS / reactive oxygen species generated from cLTP [2] | OS ([1]; transient (pulsed) IFN-γ 500 U/mL × 12 hours, assessed seven days later)
Insulin-like growth factor 1 [IGF-1] | significantly reduce baseline OS; also recorded: reduced slice culture OS | 30 | 26 | 73 | reduction in OS; also recorded: abrogated | abrogated | significantly reduced | did not reduced slice culture OS | 20 | abrogated; also recorded: reduced OS from menadione | abrogated; also recorded: reduced menadione-induced significant increase in OS | significant reduction in OS from cLTP | –
B1 | – | – | – | – | – | – | – | – | – | – | – | significantly reduced reactive oxygen species | OS is reduced; also recorded: similarly reduced
